Experimental data taken from patent US20070203060A1, “Casein Derived Peptides And Therapeutic Uses Thereof” (priority 2004, published 2007).
Entries after “also recorded” stand apart in the source; their conditions may differ.

Experiments:
[1] = tested on: platelets of myeloablated, bone marrow transplanted mice; assay: Platelet reconstitution in irradiated bone marrow transplant recipient mice; type: in vivo, mouse; conditions: for enhancement of platelet counts compared to control mice: F1 mice, 750 cGy, 1 mg i.v., 10 days post-transplantation; for increase in platelet counts over untreated controls / platelet count: 800 cGy, 4 daily i.p. injections; for increase in platelet counts over untreated controls: 100 μg per mouse
Method: Leukocyte and platelet reconstitution in bone marrow transplant recipient mice: BALB/c mice were sub-lethally irradiated at a source to skin distance of 70 cm, dosage of 50 cGy per minute, for a total of 600 cGy. The irradiated mice were reconstituted with syngeneic bone marrow as described above and injected intravenously 24 hours later with 1 mg per animal peptides derived from natural casein, synthetic peptides derived from casein (13-26 amino acids, see Table 3 above), or human serum albumin (controls), following a double-blinded protocol. Leukocyte reconstitution was determined according to cell count in peripheral blood collected at indicated intervals from 6 to 12 days post treatment. Platelet reconstitution was determined by cell count in blood collected from the retro orbital plexus, into EDTA-containing vials, at indicated intervals from day 6 to day 15 post treatment.
In an additional series of experiments, CBA mice were lethally irradiated (900 cGy), reconstituted with BM cells and treated with peptides derived from natural casein or human serum albumin as described above. Platelet reconstitution was assayed as mentioned above.
[…] Platelet reconstitution was assayed at 10 and 12 days post-transplantation.

[2] = tested on: murine primary bone marrow cells (CFU-GEMM); assay: Multipotential colonies (CFU-GEMM) from murine bone marrow cells, colony and differential counts; type: cell-based, mouse; conditions: for Early (E.MK) megakaryocyte formation (in words): 25 μg or more, 14 days; for Early (E.MK) megakaryocyte formation (in words) / increase in total megakaryocyte proliferation over controls: FIG. 21; for increase in total megakaryocyte proliferation over controls: differential count; for megakaryocyte formation and development (in words): 8 days treatment
Method: Proliferation of megakaryocytes in multipotential colonies (CFU-GEMM) from murine Bone Marrow cells: Primary bone marrow cells (1×10^5 per ml) from 8-12 week-old C3H/HeJ mice were grown in serum-free methyl cellulose-IMDM medium for 8-9 days at 5% CO2, 95% air, at 37° C. The medium, appropriate for the growth of multipotential colonies (CFU-GEMM), contained 1% BSA (Sigma), 10^−4 M thioglycerol (Sigma), 2.8×10^−4 M human transferrin (TF, Biological industries, Israel), 10% WEHI-CM as a source of IL-3 and 2 units per ml erythropoietin (rhEPO, R & D Systems, Minneapolis). […] They were picked with a micropipette, cytocentrifuged and stained with May-Grunwald-Giemsa for differential counts. At least 700 cells were counted for each preparation. […]

[3] = tested on: human Peripheral Blood Stem Cells / K562 target cells; assay: NK activity of cultured human PBSC (35S release from K562 target cells); type: cell-based
Method: From human Peripheral Blood Stem Cells (PBSC): PBSC of G-CSF treated subjects were separated on a FICOLL gradient, washed twice with RPMI-1640 medium containing 10% FCS and glutamine, and seeded into 1.5 ml wells with or without peptides derived from natural casein or synthetic peptides derived from casein, as indicated, (0-500 μg per ml). Following two days incubation the cells were assayed for Natural Killer activity by measuring radioactivity released from ^35S-labeled K562 target cells (NEG-709A, 185.00 MBq, 2.00 mCi EASYTAGth Methionine, L-[^35S] 43.48 TBq per mmol, 1175.0 Ci per mmol, 0.488 ml, Boston USA). Two concentrations of effector cells (2.5×10^5 and 5×10^5 cells per well) were incubated with 5×10^3 target cells per well (effector:target cell ratios of 50:1 and 100:1, respectively) in U-bottomed 96 well tissue culture plates. The cells were incubated for 5 hours at 37° C. in 5% CO2, 95% air and precipitated by 5 minutes centrifugation at 1000 rpm. ^35S release was measured in 50 μl samples of the supernatant liquid.

[4] = tested on: HIV-1 infection of CEM cells; assay: Inhibition of in vitro HIV-1 infection of CEM lymphocytes (cell counts, P24 antigen assay); type: cell-based
Method: Peptides: Peptides (either peptides derived from natural casein or synthetic peptides derived from casein (2-26 amino acids in length, see table 3) supplied as lyophilized powder were resuspended in RPMI complete medium and added to cell cultures at a final concentrations of 50 to 1000 μg per ml.
Cells: Several types of freshly isolated human cells (primary cells) and cell lines are known to be susceptible to in vitro HIV-1 infection, although essentially any cell displaying even low surface levels of the CD4molecule can be considered a potential target for HIV-1 infection. Two commonly used human cell lines which are highly sensitive for HIV-1 infection were chosen, CEM and Sup-T1.
CEM is a human T4-lymphoblastoid cell line initially derived by G. E. Foley et al. [(1965), Cancer 18:522] from peripheral blood buffy coat of a person with acute lymphoblastic leukemia. These cells were continuously maintained in suspension in medium, and have been used widely for analysis of infectivity, antiviral agents and neutralizing antibodies.
Virus: The HIV virus strain employed was HIV-1IIIB, originally designated HTLV-IIIB. Concentrated culture fluids of peripheral blood from several patients with AIDS or related diseases were used to establish a permanent productive infection in H-9 cells. This subtype B virus has high capacity to replicate in human T-cell lines. Viral titer was 5.38 ng per ml in stock solution.
HIV-1 P^24 antigen capture assay: An HIV-1 P^24 Antigen capture assay kit employed was designed to quantitate the HIV-1 P^24 core antigen, which is proportionally related to the degree of viral production in cells. This kit was purchased from the AIDS Vaccine program of the SAIC-NCI-Frederick Cancer Research Institute, P.O. Box B, Frederick, Md. 21702, USA and included 96 well plates coated with monoclonal antibody to HIV-1 P^24, primary antibody-rabbit anti-HIV P^24 serum, secondary antibody-Goat anti-rabbit-IgG (H+ L) peroxidase conjugated antibody, TMB peroxidase substrate system and lysed HIV-1 P^24 standard. The HIV-1 P^24 antigen capture assay was analyzed by Organon-Technica ELISA reader at 450 nm with a reference at 650 nm.
HIV-1 P^24 antigen capture ELISA: HIV infection was measured with an indirect enzyme immunoassay which detects HIV-1 P^24 core antigens in tissue culture media. Tissue culture supernatant was reacted with primary rabbit anti-HIV-1 P^24 antigen and visualized by peroxidase conjugated goat anti rabbit IgG. The reaction was terminated by adding 4N H2SO4, wherein the intensity of the color developed is proportional to the amount of HIV-1 antigen present in the tissue culture supernatant.
HIV infection of human cultured CD4 cells: For longer incubations, the cells (CEM, Sup-T1) were preincubated with several increasing concentrations of peptides derived from natural casein (50-1000 μg per ml) or synthetic peptides derived from casein (10-500 μg per ml) for 24 (for synthetic and natural peptides) and 48 (only for natural peptides) hours and HIV-1IIIB (45 pg per ml final concentration) was added to each well thereafter. For the shorter incubations (3 hours), HIV-1IIIB was preincubated with the peptides for 3 hours and then added to cells (5000 cells/well) in tissue culture plates. Controls were IF (Infected, cells cultured with HIV-1 and without peptides), UIF (Uninfected, cells cultured without HIV-1 and without peptides) and UIF+Ch (Uninfected+peptides derived from natural casein, cells cultured in the presence of peptides derived from natural casein {50-1000 μg per ml}) to test the effect of peptides derived from natural casein and synthetic peptides derived from casein on cell viability and growth. Cells were counted for viability and proliferation rate on day 7, 10 and day 14 post infection (the day of P^24 antigen culture supernatant harvest). Cells and tissue culture supernatants (media) were harvested and lysed immediately in 1/10 volume of 10% Triton X-100. […]

[5] = tested on: glucose metabolism in NOD mice; assay: Intraperitoneal Glucose Tolerance Test (IPGTT) in NOD mice; type: in vivo, mouse; conditions: healthy NOD mice after 25 weeks
Method: Intraperitoneal Glucose Tolerance Test (IPGTT): The glucose tolerance test is the definitive method for investigating glucose metabolism and diabetic tendencies in mammals. Twenty five (25) weeks after receiving Synthetic peptides derived from casein, response to a glucose load was assessed with an intraperitoneal glucose tolerance test. Glucose injection consisted of 1 g/kg body weight. Glycemic values were determined from blood drawn prior to test (0 minutes) and 60 minutes after loading.

[6] = tested on: peripheral white blood cells of myeloablated, bone marrow transplanted mice; assay: Leukocyte reconstitution in irradiated bone marrow transplant recipient mice; type: in vivo, mouse; conditions: for peripheral white blood cell count: BALB/c, 600 cGy, 1 mg per mouse i.p.; for early leukocyte reconstitution (in words): F1 mice, 750 cGy, 1 mg i.v., 5 and 7 days post-transplantation
[7] = tested on: human bone marrow progenitor cells (CFU-GM); assay: CFU-GM colonies from human bone marrow progenitor cells with IL-3 and G-CSF; type: cell-based; conditions: 300 μg/ml, G-CSF and IL-3, 14 days
Method: Cells were scored in the macroscopic colonies grown from human bone marrow cells prepared similarly to the CFU-GEMM colonies previously described. Cells were incubated with hematopoietic factors cytokine (IL-3) and colony stimulating factor (G-CSF), and 25 μg or more of synthetic peptides derived from casein: peptide J, representing amino acids 1-22 of α-S1 casein (SEQ ID NO. 21), or β-casein, representing amino acids 193-208 of β-casein (SEQ ID No. 28). Exposure of the human bone marrow progenitor cells to peptides derived from casein was for 14 days. Stimulation of colony formation (CFU) is expressed as the number of myeloid per colonies in 10^5 plated MNCs. Note the synergistic increase (>50% with 100 μg/ml of peptide J, and >30% with 300 μg/ml of synthetic β-casein) in myelocyte formation in cultures exposed to G-CSF, IL-3 and the synthetic peptides derived from β-casein and an N terminal portion of α-S1 casein.
A similar effect of synthetic peptides derived from α-, β- or κ-casein was observed on the proliferation of granulocytes and macrophages from human bone marrow progenitor cells. […] (FIG. 20). Thus, synthetic peptides derived from αS1-, αS2-, β- or κ-casein or combinations thereof are effective in augmenting the effect of granulopoietic factors such as G-CSF on bone marrow hematopoietic progenitor cell differentiation and expansion.

MAIPPKKNQDKTEIPTINTIAS [κ 106-127]
enhancement of platelet counts compared to control mice ([1]; listed as SEQ ID NO: 30): 26%
Early (E.MK) megakaryocyte formation (in words) [2]: dramatic effect
increase in total megakaryocyte proliferation over controls [2]: 21%

RPK [1P]
patients responding (of the 5 tested) ([3]; 25 μg/ml peptide): 3
patients responding (of the 5 tested) ([3]; 100 μg/ml peptide): 1
patients responding (of the 5 tested) ([3]; 250 μg/ml peptide): 1
target cell lysis, fold that of untreated controls ([3]; PBS cells from donors with hematopoietic disease): ≥ 2 fold
HIV-P24 antigen ([4]; 100 μg/ml, 7 days post infection, untreated control 0.52): 0.17 ng P^24 Antigen/ml
HIV-P24 antigen ([4]; 500 μg/ml, 7 days post infection, untreated control 0.52): 0.14 ng P^24 Antigen/ml

RPKHP [3P]
megakaryocyte formation and development (in words) [2]: significant increase
HIV-P24 antigen ([4]; virus pre-treated 3 hours, 10 μg per ml, 7 days post infection, control 0.52): 0.26 ng P^24 Ag per ml
HIV-P24 antigen ([4]; virus pre-treated 3 hours, 25 μg per ml, 7 days post infection, control 0.52): 0.18 ng P^24 Ag per ml

RPKHPI [4P]
increase in platelet counts over untreated controls ([1]; 12 days post transplantation): 29%
platelet count ([1]; 12 days post transplantation): 872000 mL⁻¹
megakaryocyte formation and development (in words) [2]: significant increase
HIV-P24 antigen (in words) ([4]; virus pre-incubated 3 hours, 7 days post infection): dose dependent reduction
cell counts ([4]; virus pre-treated 3 hours, 250 μg per ml, infected control 1.06×10^6): 1.59×10^6

RPKHPIKHQ [X]
glucose tolerance (IPGT) test result in words [5]: no evidence of abnormal glucose metabolism

RPKHPIKHQGL [2a]
megakaryocyte formation and development (in words) [2]: significant increase

RPKHPIKHQGLP [3a]
increase in platelet counts over untreated controls ([1]; 10 days post transplantation): up to 35.5%
increase in platelet counts over untreated controls ([1]; 12 days post transplantation): up to 13.5%
platelet count ([1]; 10 days post transplantation): 229000 mL⁻¹
platelet count ([1]; 12 days post transplantation): 622000 mL⁻¹
megakaryocyte formation and development (in words) [2]: significant increase

RPKHPIKHQGLPQEVLN
megakaryocyte formation and development (in words) [2]: significant increase

RPKHPIKHQGLPQEVLNE [F]
megakaryocyte formation and development (in words) [2]: significant increase

RPKHPIKHQGLPQEVLNENL
megakaryocyte formation and development (in words) [2]: significant increase

RPKHPIKHQGLPQEVLNENLL
megakaryocyte formation and development (in words) [2]: significant increase

RPKHPIKHQGLPQEVLNENLLR [J]
peripheral white blood cell count ([6]; day 10): 2.74 ×10^6 cells per ml
peripheral white blood cell count ([6]; day 12): 5.20 ×10^6 cells per ml
early leukocyte reconstitution (in words) ([6]; listed as SEQ ID NO: 21): dramatic enhancement; also recorded: strong stimulation
Early (E.MK) megakaryocyte formation (in words) [2]: dramatic effect

RPKHPIKHQGLPQEVLNENLLRFF
megakaryocyte formation and development (in words) [2]: significant increase

YQEPVLGPVRGPFPII [β 193-208]
enhancement of platelet counts compared to control mice ([1]; listed as SEQ ID NO: 28): 32%
enhancement of granulopoietic stimulating effect of G-CSF (myelocyte formation) ([7]; listed as SEQ ID NO: 28): 30%
enhancement of granulopoietic stimulating effect of G-CSF (myelocyte formation) ([7]; listed as synthetic β-casein): > 30%
early leukocyte reconstitution (in words) ([6]; listed as SEQ ID NO: 28): dramatic enhancement; also recorded: strong stimulation
Early (E.MK) megakaryocyte formation (in words) [2]: dramatic effect
increase in total megakaryocyte proliferation over controls [2]: 32%
